Assay results reported in US4885277A, “Anticoagulant therapy” (Oklahoma Medical Research Foundation, priority 1987, dated 1989).
Where no end group is shown, it is not given here. [ ]: non-standard residue; d: D form. pGlu = O=C1CC[C@@H](C(=O)O)N1

Tested on: endothelial cellular receptors for Factor IX (cultured bovine aortic endothelial cells)
Experiment: Competitive binding of [125I]-Factor IX to cultured bovine aortic endothelial cells
Conditions: up to millimolar amounts of peptide
Description: The purified peptides were tested for their ability to block the binding of bovine Factor IX and IXa to cultured bovine aortic endothelial cells. Bovine Factor IX and IXa for these studies were prepared and radioiodinated (using Na^125 I and the solid state lactoperoxidase technique) using methods described by Stern, et al. (J. Biol. Chem. 260, pp. 6717-6722 [1985]). Bovine aortic endothelial cells were obtained from the aortae of newborn calves as described by Stern, et al. (Proc. Natl. Acad. Sci. U.S.A., 80, pp. 4119-4123 [1983]). These endothelial cells were grown to confluence (1.3×10^5 cells/cm^2) in culture dishes. Binding assays were carried out by incubating either ^125 I-Factor IX or ^125 I-Factor IXa with endothelial cell monolayers in the presence of varying concentrations of one of the peptides. The buffer used in these experiments was Minimal Essential Medium containing 0.5 mg/ml transferring, and the incubation time was 4-5 hours at 4° C. At the end of the incubation period, the cultures were washed to remove unbound material. Then, specifically bound [^125 I]-Factor IX or [^125 I]-Factor IXa was eluted during exposure to EDTA-containing buffer as described by Stern, et al. (Proc. Natl. Acad. Sci. U.S.A., 80, pp. 4119-4123 [1983].

## DRVYVHPSL [Angiotensin I, control peptide for specificity]
  inhibition of [125I]-Factor IX endothelial cell binding: no inhibition

## PCA-Gly-Val-Asn-Glu-Glu-Gly-Phe-Phe-Ser-Ala-Arg ([pGlu]GVNEEGFFSAR) [fibrinopeptide B, control peptide for specificity]
  inhibition of [125I]-Factor IX endothelial cell binding: no inhibition
